From US9121022B2, “Method for controlling herbicide-resistant plants” (priority 2010, dated 2015)
“Also recorded” adds a separate entry of the source. d = 2'-deoxy (DNA); r = 2'-OH (RNA)

Key:
[1] = test system: Nicotiana benthamiana phytoene desaturase; test: topical PDS oligonucleotides/polynucleotides on tobacco, bleaching and chlorophyll (Example 10); assay type: in vivo; settings: for Chlorophyll (day 7) / Chlorophyll (day 12): 6 spots on the apical area, lower values indicate suppression of phytoene desaturase; for systemic regulation (suppression) of the target phytoene desaturase gene: conclusion from Table 4; for Bleaching (day 5): day 5 after treatment
Text: The target gene used was a Nicotiana benthamiana phytoene desaturase (SEQ ID NO:2), shown in FIG. 10; the segment consisting of nucleotides 421-1120 of SEQ ID NO:2 (underlined text in FIG. 10) was used to design a 700-mer dsRNA polynucleotide (“PDS 700-mer”) and the segment consisting of nucleotides 914-1113 of SEQ ID NO:2 (bolded underlined text in FIG. 10) was used to design a 200-mer dsRNA polynucleotide (“PDS 200-mer”). FIG. 11 schematically depicts the location of the sequences of these oligonucleotides and polynucleotides in relation to the […] (SEQ ID NO:2) sequence. Non-plant sequences obtained from corn rootworm (“CRW”), SEQ ID NOs:27, 28, 29, and 30 were used as non-homologous controls. Some of the polynucleotides included a T7 promoter sequence (indicated by lower-case text in Table 3) that is a promoter recognized by a bacteriophage T7 RNA polymerase.
The following procedure was used for all assays described in this example. Four-week old Nicotiana benthamiana plants were used in all assays. Plants were treated with 0.1% SILWET L-77® brand surfactant solution freshly made with ddH2O. Two fully expanded leaves per plant (one cotyledon, one true leaf) were dipped into the SILWET L-77® brand surfactant solution for a few seconds, and allowed to dry for 15-30 minutes before application of the polynucleotide composition. Final concentration for each oligonucleotide or polynucleotide was 25 microM (in 0.01% SILWET L-77® brand surfactant, 5 mM sodium phosphate buffer, pH 6.8) unless otherwise stated. 20 microliters of the solution was applied to the top surface of each of the two pre-treated leaves to provide a total of 40 microliters (1 nmol oligonucleotide or polynucleotide) for each plant. Leaf bleaching was observed 3 days post treatment.
FIG. 13 illustrates phenotypes observed at day 12 after treatment in another assay of the effect from twelve combinations of polynucleotides or oligonucleotides (see Table 4). Table 4 also lists observations of visible bleaching of the plants at day 5 after treatment and the results of chlorophyll measurements taken at days 7 and 12 after treatment. Chlorophyll measurements are an indication of suppression of the target gene phytoene desaturase, and measurements were taken at 6 spots on the apical area, focussing on visibly bleached leaves or (in plants without visible bleaching) on leaves in equivalent locations on the plants; lower chlorophyll measurement values indicate suppression of phytoene desaturase.

[2] = test system: Palmer amaranth (EPSPS copy numbers 16 to 112); test: combinations of EPSPS, TIF and ddATPase polynucleotides with glyphosate, protocols of Table 12 (Example 26, Table 13); assay type: in vivo, Palmer amaranth (Amaranthus palmeri)
Procedure: The polynucleotides listed in Table 11 were produced by synthesis or by in vitro transcription.
Solutions of the polynucleotides were prepared and applied to the leaves of Palmer amaranth using the protocols described in Table 12.

[3] = test system: Palmer amaranth phytoene desaturase (PDS); test: sequence specificity of PDS dsRNA on Palmer amaranth, leaf bleaching (Example 11); assay type: in vivo; settings: for bleaching of leaves: 0.6 micromolar, 40 microliters per plant, 3 days post treatment; for bleaching of leaves (FIG. 17): separate assay
Text: Palmer amaranth phytoene desaturase (PDS) has the sequence […] […] […] […] […] […] […] […] […] […] […] […] […] […] […] […] […] […] […] […] […] […] […] […] (SEQ ID NO:37). A 678 base pair dsRNA polynucleotide with an anti-sense strand capable of hybridizing to the RNA encoded by the nucleotides at positions 317-994 (shown as underlined text) in SEQ ID NO:37 and a 198 base pair dsRNA polynucleotide with an anti-sense strand capable of hybridizing to the RNA encoded by the nucleotides at positions 797-994 (shown as italicized and underlined text) in SEQ ID NO:37 were synthesized.
Nicotiana benthamiana phytoene desaturase has the sequence […] […] […] […] […] […] […] […] […] […] […] […] […] […] […] […] […] […] […] […] […] […] […] […] […] […] (SEQ ID NO:38). A 685 base pair dsRNA polynucleotide with an anti-sense strand capable of hybridizing to the RNA encoded by the nucleotides at positions 421-1105 (shown as underlined text) in SEQ ID NO:38 and a 192 base pair dsRNA polynucleotide with an anti-sense strand capable of hybridizing to the RNA encoded by the nucleotides at positions 914-1105 (shown as italicized and underlined text) in SEQ ID NO:38 were synthesized.
Palmer amaranth plants having 16 copies of EPSPS and 5-8 inches high were treated with 0.1% SILWET L-77® brand surfactant solution freshly made with ddH2O. Four fully expanded leaves per plant were dipped into the SILWET L-77® brand surfactant solution for a few seconds, and allowed to dry for 30 minutes to 1 hour before application of the polynucleotide composition. Individual polynucleotide solutions were made for each of the 678 bp Palmer PDS dsRNA, 198 bp Palmer PDS dsRNA, the 685 bp Nicotiana benthamiana PDS dsRNA, and the 192 bp Nicotiana benthamiana PDS dsRNA (0.6 micromolar polynucleotide in 0.01% SILWET L-77® brand surfactant, 5 mM sodium phosphate buffer, pH 6.8). 10 microliters of polynucleotide solution (or buffer as a control) was applied to the top surface of each of the four pre-treated leaves per plant to provide a total of 40 microliters for each plant. Plants were kept in a growth chamber, and leaf bleaching was observed 3 days post treatment.

[4] = Protocol 3, 29 g/acre, copy number 16, 13 DAT

Molecule | Chlorophyll (day 7) [1] | Chlorophyll (day 12) [1] | systemic regulation (suppression) of the target phytoene desaturase gene [1] | Bleaching (day 5) [1] | further results
6 (sense ATCCATGATATCGTGAACATC; antisense GCAAAGAAAAATGCGTCG; DNA, backbone not given here) [compound 6] | 34.2 | 38.2 | did not suppress | not yet | 
IDT [3]: Palmer/EPSPS dsRNA, SEQ ID NO. 87, 88 (chain 1 GGUCGACAACUUGCUGUAUAGUGAT; chain 2 AUCACUAUACAGCAAGUUGUCGACCUC; chain 1: sugars from the 5' end r23 d2, backbone not given here; chain 2: RNA, backbone not given here) |  |  |  |  | Results: stunted [2, 4]: 51% stunted
8 (antisense 1 CATCTCCTTTAATTGTACTGCC; antisense 2 TTTAATTGTACTGCCATTATTC; DNA, backbone not given here) [compound 8] | 11.3 | 3.2 | effective | strong | 
IDT [1]: Palmer/EPSPS dsRNA, SEQ ID NO. 83, 84; 25-mer sense with two 3′ deoxyribonucleotides, 27-mer anti-sense (sense CUACCAUCAACAAUGGUGUCCAUAC; antisense GUAUGGACACCAUUGUUGAUGGUAGUA; sense: sugars from the 5' end r23 d2, backbone not given here; antisense: RNA, backbone not given here) |  |  |  |  | Results: stunted [2, 4]: 51% stunted
IDT [5]: Palmer/EPSPS dsRNA (21-mer) with blunt ends, SEQ ID NO. 91, 92 (chain 1 AACAUGAACAAAAUGCCAGAU; chain 2 AUCUGGCAUUUUGUUCAUGUU; RNA, backbone not given here) |  |  |  |  | Results: stunted ([2]; Protocol 1, 0.29 g/acre, copy number 33, 54, 55, 18 DAT): 71%; Results: killed ([2]; Protocol 1, 2.9 g/acre each, copy number 34, 36, 54, 22 DAT): 100% kill; Results: killed ([2]; Protocol 1, 2.9 g/acre, copy number 33, 54, 55, 18 DAT): 100% killed
7 (sense 1 GCAAGAGATGTCCTAGGTGGG; sense 2 ACAGATTTCTTCAGGAGAAACATGG; DNA, backbone not given here) [compound 7] | 32.0 | 41.1 | did not suppress | not yet | 
Treatment 8: SEQ ID NO: 22, 23; anti-sense 22-mer oligos without T7 promoter (antisense 1 CATCTCCTTTAATTGTACTGCC; antisense 2 TTTAATTGTACTGCCATTATTC; listed as DNA, chemistry not given here) |  |  |  |  | bleaching of apical leaves (FIG. 15) ([1]; another assay, listed as PDS anti-sense): strong bleaching; also recorded: apical leaf bleaching observed
IDT [2]: Palmer/EPSPS dsRNA, SEQ ID NO. 85, 86 (chain 1 AGUUGGUGGGCAAUCAUCAAUUGTT; chain 2 AACAAUUGAUGAUUGCCCACCAACUCU; chain 1: sugars from the 5' end r23 d2, backbone not given here; chain 2: RNA, backbone not given here) |  |  |  |  | Results: control [2, 4]: 0% control
Treatment 10: dsRNA corresponding to nucleotides 914-1113 of SEQ ID NO:2 (nucleic acid, listed as Nicotiana benthamiana, double-stranded RNA) ACAGATTTCTTCAGGAGAAACATGGTTCAAAAATGGCCTTTTTAGATGGTAACCCTCCTGAGAGACTTTGCATGCCGATTGTGGAACATATTGAGTCAAAAGGTGGCCAAGTCAGACTAAACTCACGAATAAAAAAGATCGAGCTGAATGAGGATGGAAGTGTCAAATGTTTTATACTGAATAATGGCAGTACAATTAAA |  |  | also effective |  | bleaching of apical leaves (FIG. 12A) ([1]; 200-mer dsRNA at 0.6 microM, oligonucleotides 25 microM each): Bleaching of apical leaves was observed
678 bp Palmer PDS dsRNA: dsRNA to positions 317-994 of Palmer amaranth PDS (SEQ ID NO:37) (nucleic acid, listed as Amaranthus palmeri, complementary strand) sense: TAGGAGGAAAGGTTGCAGCGTGGAAGGATGAGGATGGTGACTGGTATGAGACTGGGCTACATATATTCTTTGGGGCATATCCAAATGTCCAAAATCTATTTGGAGAACTTGGTATAAATGACCGACTGCAATGGAAGGAGCACTCTATGATTTTTGCAATGCCCAGCAAGCCCGGTGAATTCAGTCGCTTTGATTTTCCCGAAATCCTGCCTGCACCATTAAATGGCATATGGGCAATCCTAAGAAATAATGAAATGCTAACCTGGCCAGAAAAAATCAAGTTTGCCATTGGCTTGTTGCCTGCTATGGCAGGCGGACAGTCATATGTTGAAGCACAAGATGGTTTGAGTGTCCAAGAGTGGATGAGAAAACAAGGAGTACCCGATCGTGTAACTGATGATGTGTTTATTGCCATGTCAAAGGCACTGAACTTCATAAATCCCGATGAACTTTCAATGCAGTGCATCTTGATTGCTCTGAACCGATTCCTGCAGGAGAAACATGGTTCTAAGATGGCCTTCCTAGACGGAAACCCTCCAGAGAGGCTGTGCATGCCTATTGTTAAACACATCGAGTCACTAGGTGGTGAAGTTAAACTTAACTCTCGTATACAAAAGATTCAGTTGGACCAGAGTGGAAGCGTGAAGAGTTTTTTGCTAAATAACGGGAGGGAAATAC |  |  |  |  | bleaching of leaves [3]: showed bleaching of leaves; bleaching of leaves (FIG. 17) [3]: apical leaf bleaching observed
9 (nucleic acid, DNA, backbone not given here) chain 1: GCAAGAGATGTCCTAGGTGGG chain 2: ACAGATTTCTTCAGGAGAAACATGG chain 3: CATCTCCTTTAATTGTACTGCC chain 4: TTTAATTGTACTGCCATTATTC chain 5: CACTTCCATCCTCATTCAGCTCGAT chain 6: ACACCTCATCTGTCACCCTATCAG chain 7: CAGTCTCGTACCAATCTCCATCAT | 30.2 | 34.4 |  | not yet | 
198 bp Palmer PDS dsRNA: dsRNA to positions 797-994 of Palmer amaranth PDS (SEQ ID NO:37) (nucleic acid, listed as Amaranthus palmeri, complementary strand) sense: ACCGATTCCTGCAGGAGAAACATGGTTCTAAGATGGCCTTCCTAGACGGAAACCCTCCAGAGAGGCTGTGCATGCCTATTGTTAAACACATCGAGTCACTAGGTGGTGAAGTTAAACTTAACTCTCGTATACAAAAGATTCAGTTGGACCAGAGTGGAAGCGTGAAGAGTTTTTTGCTAAATAACGGGAGGGAAATAC |  |  |  |  | bleaching of leaves [3]: showed bleaching of leaves; bleaching of leaves (FIG. 17) [3]: apical leaf bleaching observed
